The NIST ThermoML archive (doi:10.1021/je700260f)
Values joined by “and” are separate entries in the source; they are usually repeats but may differ in a detail not shown here. Equal values may be shown once.

Conditions: Liquid, Vibrating tube method

FC(C(F)(F)F)C(F)(F)F [1,1,1,2,3,3,3-heptafluoropropane]
Conditions	mass density
283.15 K, 34529 kPa	1579 kg/m3
283.15 K, 34530 kPa	1579 kg/m3
283.15 K, 34532 kPa	1579.1 kg/m3
283.15 K, 34533 kPa	1579 kg/m3
283.15 K, 34534 kPa	1579.1 kg/m3
283.15 K, 34535 kPa	1579.2 kg/m3
283.15 K, 34536 kPa	1579 kg/m3
283.15 K, 34538 kPa	1579 kg/m3 and 1579.1 kg/m3
283.15 K, 34540 kPa	1579.1 kg/m3
283.15 K, 34541 kPa	1579.1 kg/m3
283.16 K, 9519 kPa	1496 kg/m3
283.16 K, 9552 kPa	1496.3 kg/m3
283.16 K, 9579 kPa	1496.3 kg/m3
283.16 K, 9612 kPa	1496.4 kg/m3
283.16 K, 21379 kPa	1540.8 kg/m3
293.14 K, 783 kPa	1411.5 kg/m3
293.14 K, 832 kPa	1411.9 kg/m3
293.14 K, 869 kPa	1412.2 kg/m3
293.14 K, 911 kPa	1412.4 kg/m3
293.14 K, 943 kPa	1412.7 kg/m3
293.14 K, 980 kPa	1412.9 kg/m3
293.14 K, 1007 kPa	1413.2 kg/m3
293.14 K, 1048 kPa	1413.5 kg/m3
293.14 K, 1080 kPa	1413.6 kg/m3
293.14 K, 1113 kPa	1414 kg/m3
293.14 K, 1145 kPa	1414.1 kg/m3
293.14 K, 1191 kPa	1414.5 kg/m3
293.14 K, 1219 kPa	1414.6 kg/m3
293.14 K, 1252 kPa	1414.9 kg/m3
293.14 K, 1285 kPa	1415 kg/m3
293.14 K, 1319 kPa	1415.2 kg/m3
293.14 K, 1347 kPa	1415.6 kg/m3
293.14 K, 1380 kPa	1415.7 kg/m3
293.14 K, 1417 kPa	1415.9 kg/m3
293.14 K, 1446 kPa	1416.2 kg/m3
293.14 K, 1484 kPa	1416.4 kg/m3
293.14 K, 1514 kPa	1416.7 kg/m3
293.14 K, 1543 kPa	1417 kg/m3
293.14 K, 1583 kPa	1417.1 kg/m3
293.14 K, 1612 kPa	1417.3 kg/m3
293.14 K, 1754 kPa	1418.3 kg/m3
293.14 K, 1789 kPa	1418.7 kg/m3
293.14 K, 1824 kPa	1418.8 kg/m3
293.14 K, 1901 kPa	1419.3 kg/m3
293.14 K, 1941 kPa	1419.6 kg/m3
293.14 K, 1972 kPa	1419.8 kg/m3
293.14 K, 2001 kPa	1420.1 kg/m3
293.14 K, 2030 kPa	1420.1 kg/m3
293.14 K, 2059 kPa	1420.5 kg/m3
293.14 K, 2084 kPa	1420.5 kg/m3
293.14 K, 2104 kPa	1420.7 kg/m3
293.14 K, 2140 kPa	1421 kg/m3
293.14 K, 2164 kPa	1421 kg/m3
293.14 K, 2197 kPa	1421.3 kg/m3
293.14 K, 2221 kPa	1421.4 kg/m3
293.14 K, 2258 kPa	1421.7 kg/m3
293.14 K, 2291 kPa	1421.9 kg/m3
293.14 K, 2324 kPa	1422.2 kg/m3
293.14 K, 2349 kPa	1422.4 kg/m3
293.14 K, 2377 kPa	1422.7 kg/m3
293.14 K, 2402 kPa	1422.6 kg/m3
293.14 K, 2682 kPa	1424.5 kg/m3
293.14 K, 2707 kPa	1424.7 kg/m3
293.14 K, 2740 kPa	1424.9 kg/m3
293.14 K, 2766 kPa	1425.1 kg/m3
293.14 K, 2804 kPa	1425.4 kg/m3
293.14 K, 2829 kPa	1425.5 kg/m3
293.14 K, 2858 kPa	1425.8 kg/m3
293.14 K, 2883 kPa	1425.8 kg/m3
293.14 K, 2921 kPa	1426.1 kg/m3
293.14 K, 2959 kPa	1426.4 kg/m3
293.14 K, 2988 kPa	1426.7 kg/m3
293.14 K, 3018 kPa	1426.7 kg/m3
293.14 K, 3056 kPa	1426.9 kg/m3
293.14 K, 3082 kPa	1427.2 kg/m3
293.14 K, 3112 kPa	1427.3 kg/m3
293.14 K, 3147 kPa	1427.5 kg/m3
293.14 K, 3177 kPa	1427.8 kg/m3
293.14 K, 3211 kPa	1427.9 kg/m3
293.14 K, 3246 kPa	1428.2 kg/m3
293.14 K, 3290 kPa	1428.4 kg/m3
293.14 K, 3321 kPa	1428.7 kg/m3
293.14 K, 3360 kPa	1428.9 kg/m3
293.14 K, 3395 kPa	1429.1 kg/m3
293.14 K, 3426 kPa	1429.3 kg/m3
293.14 K, 3461 kPa	1429.4 kg/m3
293.14 K, 3502 kPa	1429.8 kg/m3
293.14 K, 3537 kPa	1430 kg/m3
293.14 K, 3573 kPa	1430.1 kg/m3
293.14 K, 3604 kPa	1430.4 kg/m3
293.14 K, 3631 kPa	1430.7 kg/m3
293.14 K, 3668 kPa	1430.7 kg/m3
293.14 K, 3690 kPa	1431.1 kg/m3
293.14 K, 3722 kPa	1431 kg/m3
293.14 K, 3750 kPa	1431.3 kg/m3
293.14 K, 3815 kPa	1431.8 kg/m3
293.14 K, 3876 kPa	1432.1 kg/m3
293.14 K, 4878 kPa	1438.3 kg/m3
293.14 K, 4910 kPa	1438.4 kg/m3
293.14 K, 4933 kPa	1438.5 kg/m3
293.14 K, 4965 kPa	1438.7 kg/m3
293.14 K, 4997 kPa	1438.9 kg/m3
